Read-outs that look alike come from different tables or passages of the source.
Experiments:
[1] = test system: rabbit eye; details: cited from earlier work
[2] = pH 6.36
[3] = no antioxidants, predicted GHS class, cited from earlier work
[4] = OS2 (OPTISAFE2), OPTISAFE formulation with antioxidants; details: for OS2 Cons: majority prediction of the triplicate assays; for OS2 R1 / 0S2 R1: repeat 1, with antioxidants; for OS2 R1 / OS2 R3 / 0S2 R1: predicted GHS class; for OS2 R3: repeat 3, with antioxidants
[5] = OPTISAFE in vitro ocular irritation test, original formulation without antioxidants; details: for OPTISAFE (no antioxidant) Score AVG: ROS/CL chemicals; for OPTISAFE (no antioxidant) Score AVG / OPTISAFE Score AVG: triplicate assays; for OPTISAFE Score AVG: original formulation without antioxidants
Procedure: Surfactants were diluted.
Next a study was conducted to determine if the addition of antioxidants changes the reliability (repeatability) of the test method. After this, a large study determined if antioxidants specifically reduce the false positive rate without impacting the true positive rate and the true negative rate and then all prior test chemicals were rested with antioxidants in triplicate.

[6] = Table 7A, based on the Draize data
[7] = Table 7A, consensus of past transferability study
[8] = Table 7B, based on the Draize data
[9] = Table 7B, consensus of past application domain study

CC(C)CO [Isobutanol]
In vivo GHS [1, 6]: 2A (2A (reversal by 7 days)) | 0S2 R1 [2]: 1 | OS2 Cons [2]: 1 | OS2 R3 [2]: 1 | OS Cons [3, 7]: 1

CCN(CC)C(=O)c1cccc(C)c1 [n,n-Diethyl-m-toluamide]
In vivo GHS [1, 8]: 2B (2B (reversal by 14 days)) | known ocular irritancy (FIG. 4 legend) ([1]; rabbit, in vivo): Irritants | OS2 Cons ([4]; Table 7B): 1 | OS2 R1 ([4]; Table 7B): 1 | OS2 R3 ([4]; Table 7B): 1 | OS Cons [3, 9]: 2

COC(C)=O [Methyl acetate]
In vivo GHS [1, 8]: 2A (2A (reversal by 7 days)) | known ocular irritancy (FIG. 4 legend) ([1]; rabbit, in vivo): Irritants | OS2 Cons [2]: 2 | OS2 R1 [2]: 2 | OS2 R3 [2]: 2 | OS Cons [3, 9]: 2

CC(C)(O)CCC(C)(C)O
OS2 Cons ([4]; Table 7B): 1 | OS2 R1 ([4]; Table 7B): 2 | OS2 R3 ([4]; Table 7B): 1

O.O.O.O.[Na+].[O-]B1OO1 [Sodium perborate tetrahydrate]
OS2 Cons ([4]; Table 7B): 1 | OS2 R1 ([4]; Table 7B): 1 | OS2 R3 ([4]; Table 7B): 1

CC(C)=O [Acetone]
In vivo GHS [1, 8]: 2A (2A (reversal by 7 days)) | OS2 Cons ([4]; Table 7B): 2 | OS2 R1 ([4]; Table 7B): 2 | OS2 R3 ([4]; Table 7B): 2 | OS Cons [3, 9]: 2

CCCCCCO [n-Hexanol]
In vivo GHS [1, 8]: 2A (2A (reversal by 7 days)) | OS2 Cons [2]: 2 | OS2 R1 [2]: 2 | OS2 R3 [2]: 1 | OS Cons [3, 9]: 2

S=C([S-])NCCNC(=S)[S-].[Mn+2] [Maneb (solid), Maneb]
In vivo GHS ([1]; rabbit, in vivo): 2B (key: NC (not classified as an irritant); 2A (reversal by 7 days); 2B (reversal by 14 days); 1 (no reversal by 21 days))

OC1CCCC1 [Cyclopentanol]
In vivo GHS [1, 8]: 2A (2A (reversal by 7 days)) | OS2 Cons [2]: 1 | OS2 R1 [2]: 1 | OS2 R3 [2]: 1 | OS Cons [3, 9]: 1

CC(C)O [Isopropanol]
In vivo GHS [1, 8]: 2A (2A (reversal by 7 days)) | OS2 Cons [2]: 2 | OS2 R1 [2]: 2 | OS2 R3 [2]: 2 | OS Cons [3, 9]: 2

CCCCCCCCCCCC(=O)O [Lauric acid]
In vivo GHS [1, 8]: 1 (1 (no reversal by 21 days)) | OS2 Cons [2]: 1 | OS2 R1 [2]: 1 | OS2 R3 [2]: 1 | OS Cons [3, 9]: 1

CC(C=O)Cc1ccc(C(C)(C)C)cc1 (stereo not shown) [Protectol PP]
OS2 Cons ([4]; Table 7B): 1 | OS2 R1 ([4]; Table 7B): 1 | OS2 R3 ([4]; Table 7B): 1

CCCC(C)CO (stereo not shown) [2-Methyl-1-pentanol]
In vivo GHS [1, 6]: 2B (2B (reversal by 14 days)) | 0S2 R1 [2]: 2 | OS2 Cons [2]: 2 | OS2 R3 [2]: 2

CCCCC(CC)COC(=O)CC(C(=O)OCC(CC)CCCC)S(=O)(=O)[O-].[Na+] (stereo not shown) [Butanedioic acid, sulfo-, 1,4-bis(2-ethylhexyl) ester, sodium salt]
In vivo GHS [1, 8]: 1 (1 (no reversal by 21 days)) | OS2 Cons [2]: 2 | OS2 R1 [2]: 2 | OS2 R3 [2]: 2 | OS Cons [3, 9]: 2

O=C(O)CCSSCCC(=O)O [3,3-Dithiodipropionic acid]
OS2 Cons ([4]; Table 7A): 1 | 0S2 R1 ([4]; Table 7A): 1 | OS2 R3 ([4]; Table 7A): 1

Diethylaminopropionitrile
In vivo GHS [1, 8]: 1 (1 (no reversal by 21 days)) | OS2 Cons ([4]; Table 7B): 1 | OS2 R1 ([4]; Table 7B): 2 | OS2 R3 ([4]; Table 7B): 1 | OS Cons [3, 9]: CNM

CCOC(=O)C(C)C(C)=O (stereo not shown) [Ethyl-2-methyl acetoacetate]
In vivo GHS [1, 8]: 2B (2B (reversal by 14 days)) | OS2 Cons ([4]; Table 7B): 1 | OS2 R1 ([4]; Table 7B): 1 | OS2 R3 ([4]; Table 7B): 1 | OS Cons [3, 9]: 1

CCCCCCCCCCCCCC(=O)OC(C)C [Isopropyl myristae]
known ocular irritancy (FIG. 4 legend) ([1]; rabbit, in vivo): Nonirritants

C=C1C2CCC(C2)C1(C)C (stereo not shown) [Camphene]
0S2 R1 [2]: 2 | OS2 Cons [2]: 2 | OS2 R3 [2]: 2

CCOCCOCC [Ethylene glycol diethyl ether]
OS2 (with antioxidant) Score AVG [2]: 21.6 ± 2.5 | OS2 Cons [2]: 2 | OS2 R1 [2]: 2 | OS2 R3 [2]: 2 | OPTISAFE (no antioxidant) Score AVG [5]: 25.4 ± 1.8 | OS Cons [3, 9]: 2

O=P(O)(OCc1ccccc1)OCc1ccccc1 [Dibenzyl phosphate]
OS2 Cons ([4]; Table 7A): 1 | 0S2 R1 ([4]; Table 7A): 1 | OS2 R3 ([4]; Table 7A): 1

C=CCCCCCCC=C [1,9-Decadiene]
OS2 (with antioxidant) Score AVG [2]: 11.4 ± 6.4 | OPTISAFE (no antioxidant) Score AVG [5]: 22.5 ± 3.6 | OS Cons [3, 7]: 2

Nc1ncccc1O [2-Amino-3-pyridinol]
In vivo GHS [1, 8]: 2A (2A (reversal by 7 days)) | OS Cons [3, 9]: CNM

Cc1ncnc2nc[nH]c12 [6-Methyl purine]
In vivo GHS [1, 8]: 2B (2B (reversal by 14 days)) | OS2 Cons ([4]; Table 7B): 2/1 | OS2 R1 ([4]; Table 7B): 2/1 | OS2 R3 ([4]; Table 7B): 1

CCCCCCBr [n-Hexyl bromide]
known ocular irritancy (FIG. 4 legend) ([1]; rabbit, in vivo): Nonirritants

OCc1cccc(Oc2ccccc2)c1 [3-Phenoxybenzyl alcohol]
OS2 Cons [2]: 2 | OS2 R1 [2]: 2 | OS2 R3 [2]: 2 | OS Cons [3, 9]: 2

OCCOCCOCCO [Triethylene glycol]
OS2 (with antioxidant) Score AVG [2]: 5.1 ± 1.7 | OS2 score average [2]: 3.1 | OS2 scores ranged from [2]: 2.1-4.2 | Score = Average score [2]: 3.1 | OPTISAFE (no antioxidant) Score AVG [5]: 13.2 ± 3.5 | OS Cons [3, 9]: 2

CC(=O)CC(=O)OC(C)C [Isopropyl acetoacetate]
In vivo GHS [1, 8]: 2B (2B (reversal by 14 days)) | OS2 Cons [2]: 1 | OS2 R1 [2]: 1 | OS2 R3 [2]: 1 | OS Cons [3, 9]: 1

Sodium lauroyl sarcosinate [Sodium lauroyl sarcosinate (10%)]
OS2 result, expanded surfactant study ([4]; due to assay inhibition): CNM

CC(O)CC(C)O (stereo not shown) [2,4-Pentanediol]
OS2 Score AVG [2]: 10.2 ± 0.7 | OS2 score average [2]: 9.5 | OS2 scores ranged from [2]: 7.8-10.9 | Score = Average score [2]: 9.5 | OPTISAFE Score AVG [5]: 12.0 ± 1.4

Cc1ccc(C=S)cc1 [p-Methyl thiobenzaldehyde]
OS2 Cons [2]: 1 | OS2 R1 [2]: 1 | OS2 R3 [2]: 1 | OS Cons [3, 9]: 1

CCOC(C)=O [Ethyl acetate]
OS2 Cons [2]: 2 | OS2 R1 [2]: 2 | OS2 R3 [2]: 2 | OS2 Score AVG [2]: 25.6 ± 2.4 | OPTISAFE Score AVG [5]: 23.9 ± 2.0

N#CCCCl [3-Chloropropionitrile]
In vivo GHS [1, 8]: 2B (2B (reversal by 14 days))

C=C(C)C(=O)OCCOCC [2-Ethoxyethyl methacrylate]
OS2 (with antioxidant) Score AVG [2]: 14.5 ± 2.7 | OS2 Cons [2]: 2 | OS2 R1 [2]: 2 | OPTISAFE (no antioxidant) Score AVG [5]: 97.1 ± 18.2 | OS Cons [3, 9]: 1

CC(O)C(=O)O (stereo not shown) [Lactic Acid]
In vivo GHS ([1]; rabbit, in vivo): 1 (key: NC (not classified as an irritant); 2A (reversal by 7 days); 2B (reversal by 14 days); 1 (no reversal by 21 days))

CC(C)Br [iso-Propyl bromide]
OPTISAFE prediction without the antioxidant mixture [5]: overpredicted

CCCCCCCCCCCC [Dodecane]
OS2 Score AVG [2]: 3.0 ± 2.6 | OPTISAFE Score AVG [5]: 0.9 ± 0.8

CCCCCCCCO [n-Octanol]
In vivo GHS [1, 8]: 2A (2A (reversal by 7 days)) | known ocular irritancy (FIG. 4 legend) ([1]; rabbit, in vivo): Irritants | OS2 Cons [2]: 2 | OS2 R1 [2]: 2 | OS2 R3 [2]: 2 | OS2 score average [2]: 19.1 | OS2 scores ranged from [2]: 16.5-22.8 | Score = Average score [2]: 19.1 | OS Cons [3, 9]: 2

COC(=O)CC#N [Methyl cyanoacetate]
In vivo GHS [1, 6]: 2A (2A (reversal by 7 days)) | 0S2 R1 [2]: 1 | OS2 Cons [2]: 1 | OS2 R3 [2]: 1 | OS Cons [3, 7]: 1

O=C1CCCO1 [gamma-Butyrolactone]
In vivo GHS [1, 8]: 2A (2A (reversal by 7 days)) | OS2 Cons ([4]; Table 7B): 2 | OS2 R1 ([4]; Table 7B): 2 | OS2 R3 ([4]; Table 7B): 2 | OS Cons [3, 9]: 2

c1c[nH]cn1 [Imidazole]
In vivo GHS ([1]; rabbit, in vivo): 1 (key: NC (not classified as an irritant); 2A (reversal by 7 days); 2B (reversal by 14 days); 1 (no reversal by 21 days))

O=C(Nc1ccc(Cl)cc1)Nc1ccc(Cl)c(Cl)c1 [Triclocarban]
OS2 Cons ([4]; Table 7B): CNM | OS2 R1 ([4]; Table 7B): CNM | OS2 R3 ([4]; Table 7B): CNM | OS Cons [3, 9]: CNM

O=C([O-])CCl.[Na+] [Sodium chloroacetate]
In vivo GHS [1, 6]: 2B (2B (reversal by 14 days))

CCCOCC(C)O (stereo not shown) [Propasol solvent P]
In vivo GHS [1, 6]: 2A (2A (reversal by 7 days)) | OS2 Cons ([4]; Table 7A): 2 | 0S2 R1 ([4]; Table 7A): 2 | OS2 R3 ([4]; Table 7A): 2 | OS Cons [3, 7]: 2

OC1CCCCC1 [Cyclohexanol]
in vivo GHS ([1]; Table 3, eye irritation class): 1 (1 (no reversal by 21 days)) | GHS ([1]; Table 4): Cat. 1 | In vivo GHS [1, 8]: 1 (1 (no reversal by 21 days))

CCCCCCCCOCCCCCCCC [Dioctyl ether]
known ocular irritancy (FIG. 4 legend) ([1]; rabbit, in vivo): Nonirritants

O=C(Cl)c1c(Cl)cccc1Cl [2,6-Dichlorobenzoyl chloride]
In vivo GHS [1, 8]: 2A (2A (reversal by 7 days)) | OS2 Cons [2]: 1 | OS2 R1 [2]: 1 | OS2 R3 [2]: 1 | OS Cons [3, 9]: 1

CC(C)C=O [Isobutyraldehyde]
In vivo GHS ([1]; rabbit, in vivo): 2B (key: NC (not classified as an irritant); 2A (reversal by 7 days); 2B (reversal by 14 days); 1 (no reversal by 21 days)) | OS2 Cons [2]: 1 | OS2 R3 [2]: 1

O=C=Nc1ccc(Cl)c(Cl)c1 [3,4-Dichlorophenyl isocyanate]
In vivo GHS [1, 6]: 1 (1 (no reversal by 21 days)) | OS2 Cons ([4]; Table 7A): 1 | 0S2 R1 ([4]; Table 7A): 1 | OS2 R3 ([4]; Table 7A): 1 | OS Cons [3, 7]: 1

C=CCO [Allyl alcohol]
In vivo GHS [1, 8]: 2A (2A (reversal by 7 days)) | OS2 Cons ([4]; Table 7B): 1 | OS2 R1 ([4]; Table 7B): 1 | OS2 R3 ([4]; Table 7B): 1 | OS Cons [3, 9]: 1

CCCCC(CC)COC(=O)CS (stereo not shown)
OPTISAFE prediction without the antioxidant mixture [5]: overpredicted

Source: patent US12115147B2, “Formulations and methods related to eye irritation” (Lebrun Labs LLC, priority 2020, dated 2024)
